In article PMC6557900 (Nature Communications, 2019):
Like-named read-outs stand apart in the source and are kept apart here. Values belong to the compound of their own block, whether it stands above or below them. Where a SMILES comes first, the peptide text is derived from it. [ ]: non-standard residue; d: D form. pY = N[C@@H](Cc1ccc(OP(=O)(O)O)cc1)C(=O)O

Tests used:
[1] = biological target: SBC (SOCS2-ElonginB-ElonginC) (Homo sapiens, UniProt O14508+Q15369+Q15370); assay: 19F ligand-observed CPMG NMR displacement of spy molecule 3
Sequence of SBC (SOCS2-ElonginB-ElonginC) (O14508 32-198): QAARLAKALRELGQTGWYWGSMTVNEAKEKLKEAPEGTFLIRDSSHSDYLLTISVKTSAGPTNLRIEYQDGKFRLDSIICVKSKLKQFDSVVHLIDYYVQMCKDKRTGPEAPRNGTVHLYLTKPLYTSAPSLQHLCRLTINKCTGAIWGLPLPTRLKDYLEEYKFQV
Sequence of SBC (SOCS2-ElonginB-ElonginC) (Q15370 1-104 partner limits assumed): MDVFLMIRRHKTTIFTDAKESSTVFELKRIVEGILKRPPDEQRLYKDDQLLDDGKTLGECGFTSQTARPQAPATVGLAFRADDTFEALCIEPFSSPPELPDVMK
Sequence of SBC (SOCS2-ElonginB-ElonginC) (Q15369 17-112 partner limits assumed): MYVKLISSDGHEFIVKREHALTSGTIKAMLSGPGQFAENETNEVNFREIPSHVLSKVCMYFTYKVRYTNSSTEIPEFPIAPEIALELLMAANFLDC
Description: In the ^19F NMR displacement assay, the fluorine signal of a purposely-designed reporter ligand (also referred to as spy molecule) was monitored as a mean to quantify the extent of the competition between the tested peptides and the spy molecule. A Carr-Purcell-Meiboom-Gill (CPMG) pulse sequence was applied to estimate the spin–spin relaxation time (T2) of the spy molecule in the absence and presence of protein[43]–[45]. By adding competitor to disrupt the protein-spy interaction, the binding affinity of a competitor can be calculated based on the degree of displacement of the spy[46],[47].
All NMR experiments were conducted using AV-500 MHz Bruker spectrometer equipped with a 5 mm CPQCI 1H/19F/13C/15N/D Z-GRD cryoprobe) at 298 K. Spectra were recorded using 80 scans of a CPMG pulse sequence that attenuates broad resonances. […] The transmitter frequency was placed close to the resonance of O1 = −35451 Hz (−75.3 ppm). […] All NMR data were processed and analyzed using TopSpin (Bruker).
The dissociation constant of peptides (Ki) was calculated by adapting the method described by Wang et al.[47] Briefly, peptides’ Ki values were obtained from the equation below:1 Ki=([P0]-[PI]-[PL])([I0]-[PI])/[PI] where [I0] and [P0] are the total concentrations of the competitor (peptide inhibitor) and protein, respectively, used in the experiment, while [PI] and [PL] are the free concentrations of protein–peptide and protein–spy complexes, which are unknown.
To determine [PL] the following equation was used:2 IF-II/IF-IP=[PL]/[PL0] where IF is the measured integral of the fluorine peak of the spy molecule free in solution; IP is the integral of the same signal in the presence of protein; II is the integral of the same signal in the presence of protein and competing peptide; and [PL0] is the concentration of protein-spy complex in the absence of competitor, which was calculated using the following equation:3 [PL0]=[P0]+[L0]+KD-([P0]+[L0]+KD)^2-4[P0][L0]/2 where [L0] is the total concentrations of spy molecule used in the experiment, and KD is the dissociation constant of the protein-spy complex (determined by ITC). To determine [PI] the following equation was used: 4 [PL]=[P0]+[L0]+KD-[PI]-([P0]+[L0]+KD-[PI])^2-4([P0]-[PI])[L0]/2 where [PL] was determined as described above (Equation 2).

[2] = biological target: T1, wild-type SBC (SOCS2-ElonginB-ElonginC) (Homo sapiens, UniProt O14508+Q15369+Q15370); assay: SPR direct binding, wild-type SBC immobilized on the chip; conditions: mean ± s.e.m., four independent experiments
T1 construct: His6 (N, cleaved yes); made in house; host or cells: E. coli BL21(DE3)
T1 sequence (O14508 32-198): as the sequence (O14508 32-198) above
T1 sequence (Q15370 1-104 partner limits assumed): as the sequence (Q15370 1-104 partner limits assumed) above
T1 sequence (Q15369 17-112 partner limits assumed): as the sequence (Q15369 17-112 partner limits assumed) above
Description: (§1) Biotinylated wild-type SBC and mutants were immobilized onto a chip surface and injected a series of seven concentrations (0.08, 0.25, 0.7, 2.2, 6.7, 20 and 60 μM) of peptide across the sensor surface for 60 s contact time and 120 sec dissociation time at 30 μl min^−1 flow rate. Data analysis was carried out using Biacore Evaluation Software (GE Healthcare). All data were double-referenced for reference surface and blank injection. The processed sensograms were fit to a steady-state affinity using a 1:1 binding model for KD estimation (raw data shown in Supplementary Figs. 10–15).

SBC with SOCS2 L106V = biological target: T2, SBC with SOCS2 L106V (Homo sapiens, UniProt O14508+Q15369+Q15370, L106V); assay: SPR, SNP mutant SBC immobilized; assay type: binding; conditions: read-out: SPR dissociation constant KD
T2 construct: His6 (N, cleaved yes); made in house; host or cells: E. coli BL21(DE3)
T2 sequence (O14508 32-198 L106V): as the sequence (O14508 32-198) above, with L75V counted along it
T2 sequence (Q15370 1-104 partner limits assumed): as the sequence (Q15370 1-104 partner limits assumed) above
T2 sequence (Q15369 17-112 partner limits assumed): as the sequence (Q15369 17-112 partner limits assumed) above
Description: (§2) Protein expression was induced with isopropyl β-d-1-thiogalactopyranoside at 18 °C for 12 h. […] SBC was finally purified by size-exclusion chromatography on a Superdex 75 16/600 column (GE Healthcare) in 25 mM HEPES, pH 7.5, 250 mM NaCl and 10 mM DTT.
as §1

SBC with SOCS2 R96L = biological target: T3, SBC with SOCS2 R96L (Homo sapiens, UniProt O14508+Q15369+Q15370, R96L); assay: SPR, SNP mutant SBC immobilized; assay type: binding; conditions: for SPR KD: source data of Table 3, R96L
T3 construct: His6 (N, cleaved yes); made in house; host or cells: E. coli BL21(DE3)
T3 sequence (O14508 32-198 R96L): as the sequence (O14508 32-198) above, with R65L counted along it
T3 sequence (Q15370 1-104 partner limits assumed): as the sequence (Q15370 1-104 partner limits assumed) above
T3 sequence (Q15369 17-112 partner limits assumed): as the sequence (Q15369 17-112 partner limits assumed) above
Description: as §2, §1

SBC with SOCS2 R96Q = biological target: T4, SBC with SOCS2 R96Q (Homo sapiens, UniProt O14508+Q15369+Q15370, R96Q); assay: SPR, SNP mutant SBC immobilized; assay type: binding; conditions: for SPR KD: source data of Table 3, R96Q
T4 construct: His6 (N, cleaved yes); made in house; host or cells: E. coli BL21(DE3)
T4 sequence (O14508 32-198 R96Q): as the sequence (O14508 32-198) above, with R65Q counted along it
T4 sequence (Q15370 1-104 partner limits assumed): as the sequence (Q15370 1-104 partner limits assumed) above
T4 sequence (Q15369 17-112 partner limits assumed): as the sequence (Q15369 17-112 partner limits assumed) above
Description: as §2, §1

SBC with SOCS2 N94D = biological target: T5, SBC with SOCS2 N94D (Homo sapiens, UniProt O14508+Q15369+Q15370, N94D); assay: SPR, SNP mutant SBC immobilized; assay type: binding; conditions: source data of Table 3, N94D
T5 construct: His6 (N, cleaved yes); made in house; host or cells: E. coli BL21(DE3)
T5 sequence (O14508 32-198 N94D): as the sequence (O14508 32-198) above, with N63D counted along it
T5 sequence (Q15370 1-104 partner limits assumed): as the sequence (Q15370 1-104 partner limits assumed) above
T5 sequence (Q15369 17-112 partner limits assumed): as the sequence (Q15369 17-112 partner limits assumed) above
Description: as §2, §1

[3] = biological target: T6, SOCS2-EloB-EloC ternary (SBC) complex (Homo sapiens, UniProt O14508+Q15369+Q15370); assay: Isothermal titration calorimetry (ITC), ligand titrated into SBC; assay type: binding
T6 construct: His6 (N, cleaved yes); made in house; host or cells: E. coli BL21(DE3)
T6 sequence (O14508 32-198): as the sequence (O14508 32-198) above
T6 sequence (Q15370 1-104 partner limits assumed): as the sequence (Q15370 1-104 partner limits assumed) above
T6 sequence (Q15369 17-112 partner limits assumed): as the sequence (Q15369 17-112 partner limits assumed) above
Description: The ITC titration consisted of 0.4 μl initial injection (discarded during data analysis) followed by 19 of 2 μl injections at 120 s interval between injections. […] Binding data was subtracted from a control titration where peptide was titrated into buffer, and fitted using a one-set-of-site binding model to obtain dissociation constants, binding enthalpy (ΔH), and stoichiometry (N) using MicroCal ITC-ORIGIN Analysis Software 7.0 (Malvern).

[4] = Table 2, biotinylated wild-type SBC immobilized, peptide 0.08-60 μM, 20 mM HEPES pH7.5, 150 mM NaCl, 1 mM TCEP, 0.005% Tween20, 10 °C, steady-state 1:1 model, read-out: SPR KD
[5] = read-out: SPR dissociation constant KD

- Ki [1]: 0.9 ± 0.17 µM
SMILES: CC[C@H](C)[C@H](NC(=O)[C@H](CO)NC(=O)[C@@H](NC(=O)[C@H](Cc1ccc(OP(=O)(O)O)cc1)NC(=O)[C@H](CC(=O)O)NC(=O)[C@@H]1CCCN1C(=O)[C@@H](NC(=O)[C@H](C)N)C(C)C)[C@@H](C)O)C(=O)N[C@@H](Cc1c[nH]cn1)C(=O)N[C@H](C(=O)N[C@H](C(N)=O)C(C)C)[C@@H](C)CC [AVPDpYTSIHIV]

- Kd ([2]; Table 3, wild-type SOCS2 (SBC), 10 °C, read-out: SPR dissociation constant KD): 5.1 ± 0.77 µM
- Kd (SBC with SOCS2 L106V): 8.9 ± 0.7 µM
- Kd (SBC with SOCS2 R96L; [5]): > 60 µM
- SPR KD (SBC with SOCS2 R96L; replicate 1): weak
- SPR KD (SBC with SOCS2 R96L; replicate 2): weak
- SPR KD (SBC with SOCS2 R96L; replicate 3): weak
- SPR KD (SBC with SOCS2 R96L; replicate 4): weak
- Kd (SBC with SOCS2 R96Q; [5]): > 60 µM
- SPR KD (SBC with SOCS2 R96Q; replicate 1): nb
- SPR KD (SBC with SOCS2 R96Q; replicate 2): nb
- SPR KD (SBC with SOCS2 R96Q; replicate 3): nb
- SPR KD (SBC with SOCS2 R96Q; replicate 4): nb
- SPR KD (SBC with SOCS2 N94D; replicate 1): weak
- SPR KD (SBC with SOCS2 N94D; replicate 2): weak
- SPR KD (SBC with SOCS2 N94D; replicate 3): weak
- SPR KD (SBC with SOCS2 N94D; replicate 4): weak
- Kd [3]: 2.3 µM
SMILES: CC[C@H](C)[C@H](NC(=O)[C@H](CC(=O)O)NC(=O)[C@H](CO)NC(=O)[C@@H](NC(=O)[C@H](CCC(N)=O)NC(=O)[C@H](C)NC(=O)[C@H](Cc1ccc(OP(=O)(O)O)cc1)NC(=O)[C@H](Cc1ccccc1)NC(=O)[C@H](CC(=O)O)NC(=O)[C@@H](NC(=O)[C@@H](N)CC(N)=O)[C@@H](C)CC)C(C)C)C(N)=O [GHR_pY487] (H-NIDF[pY]AQVSDI-NH2)

- Kd [2, 4]: 9 ± 1.05 µM
SMILES: CC[C@H](C)[C@H](NC(=O)[C@H](CO)NC(=O)[C@@H](NC(=O)[C@H](Cc1ccc(OP(=O)(O)O)cc1)NC(=O)[C@H](CC(=O)O)NC(=O)[C@@H]1CCCN1C(=O)[C@H](CCCNC(=N)N)NC(=O)[C@@H]1CCCN1)[C@@H](C)O)C(=O)N[C@@H](Cc1c[nH]cn1)C(=O)N[C@H](C(=O)N[C@H](C(N)=O)C(C)C)[C@@H](C)CC [V(−3)R] (H-PRPD[pY]TSIHIV-NH2)

- Ki [1]: 3.4 ± 0.25 µM
SMILES: CC[C@H](C)[C@H](NC(=O)[C@H](CO)NC(=O)[C@@H](NC(=O)[C@H](Cc1ccc(OP(=O)(O)O)cc1)NC(=O)[C@H](CC(=O)O)NC(=O)[C@@H]1CCCN1C(=O)[C@H](C)NC(=O)[C@@H]1CCCN1)[C@@H](C)O)C(=O)N[C@@H](Cc1c[nH]cn1)C(=O)N[C@H](C(=O)N[C@H](C(N)=O)C(C)C)[C@@H](C)CC [PAPDpYTSIHIV]

- Kd [2, 4]: 3.3 ± 0.13 µM
- Ki [1]: 3.3 ± 0.24 µM
SMILES: CC[C@H](C)[C@H](NC(=O)[C@H](CO)NC(=O)[C@@H](NC(=O)[C@H](Cc1ccc(OP(=O)(O)O)cc1)NC(=O)[C@H](CC(=O)O)NC(=O)[C@@H]1CCCN1C(=O)[C@H](Cc1ccc(O)cc1)NC(=O)[C@@H]1CCCN1)[C@@H](C)O)C(=O)N[C@@H](Cc1c[nH]cn1)C(=O)N[C@H](C(=O)N[C@H](C(N)=O)C(C)C)[C@@H](C)CC [V(−3)Y] (H-PYPD[pY]TSIHIV-NH2)

- Kd [2, 4]: 1.9 ± 0.09 µM
SMILES: CC[C@H](C)[C@H](NC(=O)[C@H](Cc1c[nH]cn1)NC(=O)[C@@H](NC(=O)[C@H](CO)NC(=O)[C@@H](NC(=O)[C@H](Cc1ccc(OP(=O)(O)O)cc1)NC(=O)[C@H](CC(=O)O)NC(=O)[C@@H]1CCCN1C(=O)[C@@H](NC(=O)[C@@H]1CCCN1)C(C)C)[C@@H](C)O)[C@@H](C)CC)C(=O)N[C@@H](C)C(N)=O [PVPDpYTSIHIA]

- Kd [2, 4]: 8.9 ± 1.25 µM
- Ki [1]: 6.9 ± 1.39 µM
SMILES: CC[C@H](C)[C@H](NC(=O)[C@@H](NC(=O)[C@H](Cc1ccc(OP(=O)(O)O)cc1)NC(=O)[C@H](CCC(=O)O)NC(=O)[C@H](Cc1ccccc1)NC(=O)[C@H](CO)NC(=O)[C@H](C)N)[C@@H](C)O)C(=O)N[C@@H](CC(C)C)C(=O)N[C@@H](CC(=O)O)C(=O)N[C@@H](C)C(=O)N[C@@H](CO)C(N)=O [ASFEpYTILDAS] (H-ASFE[pY]TILDAS-NH2)

More lines, now with the values behind:

SMILES: CC[C@H](C)[C@H](NC(=O)[C@@H](NC(=O)[C@H](Cc1ccc(OP(=O)(O)O)cc1)NC(=O)[C@H](C)NC(=O)[C@H](Cc1ccccc1)NC(=O)[C@H](CO)NC(=O)[C@H](C)N)[C@@H](C)O)C(=O)N[C@@H](CC(C)C)C(=O)N[C@@H](CC(=O)O)C(=O)N1CCC[C@H]1C(=O)N[C@@H](CO)C(N)=O [ASFApYTILDPS] (H-ASFA[pY]TILDPS-NH2)
- Kd [2, 4]: 21.7 ± 1.49 µM

SMILES: CC[C@H](C)[C@H](NC(=O)[C@H](C)NC(=O)[C@@H](NC(=O)[C@H](CO)NC(=O)[C@@H](NC(=O)[C@H](Cc1ccc(OP(=O)(O)O)cc1)NC(=O)[C@H](CC(=O)O)NC(=O)[C@@H]1CCCN1C(=O)[C@@H](NC(=O)[C@@H]1CCCN1)C(C)C)[C@@H](C)O)[C@@H](C)CC)C(=O)N[C@H](C(N)=O)C(C)C [PVPDpYTSIAIV] (H-PVPD[pY]TSIAIV-NH2)
- Kd [2, 4]: 6.7 ± 0.78 µM

SMILES: CC[C@H](C)[C@H](NC(=O)[C@H](Cc1c[nH]cn1)NC(=O)[C@H](C)NC(=O)[C@H](CO)NC(=O)[C@@H](NC(=O)[C@H](Cc1ccc(OP(=O)(O)O)cc1)NC(=O)[C@H](CC(=O)O)NC(=O)[C@@H]1CCCN1C(=O)[C@@H](NC(=O)[C@@H]1CCCN1)C(C)C)[C@@H](C)O)C(=O)N[C@H](C(N)=O)C(C)C [PVPDpYTSAHIV] (H-PVPD[pY]TSAHIV-NH2)
- Ki [1]: 3.4 ± 0.66 µM

SMILES: CC(C)C[C@H](NC(=O)[C@H](C)NC(=O)[C@@H](NC(=O)[C@H](Cc1ccc(OP(=O)(O)O)cc1)NC(=O)[C@H](CCC(=O)O)NC(=O)[C@H](Cc1ccccc1)NC(=O)[C@H](CO)NC(=O)[C@H](C)N)[C@@H](C)O)C(=O)N[C@@H](CC(=O)O)C(=O)N1CCC[C@H]1C(=O)N[C@@H](CO)C(N)=O [ASFEpYTALDPS] (H-ASFE[pY]TALDPS-NH2)
- Ki [1]: 17.2 ± 0.89 µM

SMILES: CC[C@H](C)[C@H](NC(=O)[C@@H](NC(=O)[C@H](Cc1ccc(OP(=O)(O)O)cc1)NC(=O)[C@H](CCC(=O)O)NC(=O)[C@H](Cc1ccccc1)NC(=O)[C@H](CO)NC(=O)[C@H](C)N)[C@@H](C)O)C(=O)N[C@@H](CC(C)C)C(=O)N[C@@H](C)C(=O)N1CCC[C@H]1C(=O)N[C@@H](CO)C(N)=O [ASFEpYTILAPS] (H-ASFE[pY]TILAPS-NH2)
- Kd [2, 4]: 18 ± 0.91 µM
- Ki [1]: 14.1 ± 1.74 µM

SMILES: CC[C@H](C)[C@H](NC(=O)[C@H](CO)NC(=O)[C@H](C)NC(=O)[C@H](Cc1ccc(OP(=O)(O)O)cc1)NC(=O)[C@H](CC(=O)O)NC(=O)[C@@H]1CCCN1C(=O)[C@@H](NC(=O)[C@@H]1CCCN1)C(C)C)C(=O)N[C@@H](Cc1c[nH]cn1)C(=O)N[C@H](C(=O)N[C@H](C(N)=O)C(C)C)[C@@H](C)CC [PVPDpYASIHIV] (H-PVPD[pY]ASIHIV-NH2)
- Kd [2, 4]: 1 ± 0.09 µM
- Ki [1]: 0.5 ± 0.07 µM
